14 compounds from patent publication US20080318943A1, “Compounds and Uses Thereof - 848” (ASTRAZENECA AB, priority 2007, published 2008) can be followed below.

pKi: −log10 of the molar value.

The target of assay [1] is T1, GABAA2 receptors (α2, β3, γ2 receptor subunits transfected into Sf9 cells) (Homo sapiens, UniProt P18507+P47869).
T1 construct: host or cells: Sf9 cells (membranes)
Description: GABAA2 Binding Method ([3H]-Flunitrazepam displacement). Particulars: [3H]-Flunitrazepam ~2 nM, α2β3γ2 Sf9 membranes, 1 hr at 4° C. In short, it runs like this: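 Membranes from Sf9 cells expressing α2β3γ2 GABAA receptors incubated with ~2 nM (final) [3H]-flunitrazepam and test compound 1 h at 4 °C, then filtered on GF/B plates with cold-buffer washes. Flumazenil-defined controls; percent of control, IC50 and Ki calculated.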

Assay [2] deals with T2, GABAA receptor α1β2γ2 (Homo sapiens, UniProt P14867+P18507).
T2 construct: expressed in transfected cells; host or cells: Xenopus laevis oocytes injected with cRNA
T2 sequence (P14867 28-456): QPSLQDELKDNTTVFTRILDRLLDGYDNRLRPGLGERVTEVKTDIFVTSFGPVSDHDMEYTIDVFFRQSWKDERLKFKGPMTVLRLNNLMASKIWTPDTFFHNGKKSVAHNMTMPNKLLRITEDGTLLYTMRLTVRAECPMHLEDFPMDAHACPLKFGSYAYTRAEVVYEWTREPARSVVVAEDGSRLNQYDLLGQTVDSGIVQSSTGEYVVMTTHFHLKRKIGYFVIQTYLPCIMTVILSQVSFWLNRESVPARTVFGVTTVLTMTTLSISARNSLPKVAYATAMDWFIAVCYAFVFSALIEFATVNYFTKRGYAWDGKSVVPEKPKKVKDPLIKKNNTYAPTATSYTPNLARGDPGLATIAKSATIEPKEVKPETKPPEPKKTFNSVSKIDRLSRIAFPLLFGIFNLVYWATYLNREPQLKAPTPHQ
T2 sequence (P47870 25-512 partner limits assumed): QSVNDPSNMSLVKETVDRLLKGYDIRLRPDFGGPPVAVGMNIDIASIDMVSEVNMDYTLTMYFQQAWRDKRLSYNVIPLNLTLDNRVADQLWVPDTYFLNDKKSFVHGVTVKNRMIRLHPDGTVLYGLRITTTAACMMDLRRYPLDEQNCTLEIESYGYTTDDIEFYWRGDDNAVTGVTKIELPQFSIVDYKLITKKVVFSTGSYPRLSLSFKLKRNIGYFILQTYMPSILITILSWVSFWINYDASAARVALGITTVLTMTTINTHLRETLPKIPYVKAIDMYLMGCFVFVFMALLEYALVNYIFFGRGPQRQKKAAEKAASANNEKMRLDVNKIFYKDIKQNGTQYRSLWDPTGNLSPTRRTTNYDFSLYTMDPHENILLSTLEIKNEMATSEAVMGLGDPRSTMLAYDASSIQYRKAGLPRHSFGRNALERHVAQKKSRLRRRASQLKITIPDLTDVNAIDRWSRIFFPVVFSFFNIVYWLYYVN
T2 sequence (P18507 40-475): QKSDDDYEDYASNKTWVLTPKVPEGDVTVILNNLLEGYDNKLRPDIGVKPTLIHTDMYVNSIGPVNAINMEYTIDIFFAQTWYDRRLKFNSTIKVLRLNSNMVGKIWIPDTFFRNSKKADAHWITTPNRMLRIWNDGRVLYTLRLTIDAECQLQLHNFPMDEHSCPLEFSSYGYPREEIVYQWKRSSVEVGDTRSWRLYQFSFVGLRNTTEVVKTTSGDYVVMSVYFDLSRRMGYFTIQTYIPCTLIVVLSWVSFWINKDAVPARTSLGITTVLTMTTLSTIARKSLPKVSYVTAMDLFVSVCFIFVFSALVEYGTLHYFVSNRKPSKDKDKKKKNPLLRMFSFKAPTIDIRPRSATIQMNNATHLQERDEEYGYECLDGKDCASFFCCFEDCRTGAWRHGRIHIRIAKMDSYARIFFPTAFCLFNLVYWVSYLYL
Description: Two-electrode voltage-clamp potentiation of GABA EC10 current in Xenopus oocytes, GABAA1. Particulars: percentage potentiation of GABA EC10 current divided by that of diazepam. The format is cell-based. Here is the method: GABAA receptors were heterologously expressed in Xenopus oocytes by injecting cRNA corresponding to human α1, α2, α3, α5, β2, P3 and γ2 subunits of the GABAA receptor genes. The specific subunit combinations (subtypes) were as follows: α1β2γ2, α2β3γ2, α3β3γ2, and α5β3γ2. The EC10 of GABA is approximated for each cell. Stability of GABA-mediated (EC10) current is established. Modulatory effect of test compound is determined and compared across subtypes. […] Thus, the assay can characterize modulatory effects and determine subtype selectivity of test compounds on major subtypes of GABAA receptors.
Xenopus laevis frogs (Xenopus I, Kalamazoo, Mich.) were anesthetized using 0.15% tricaine. Surgically removed ovarian lobes were teased out in OR2 solution (82 NaCl, 2.5 KCl, 5 HEPES, 1.5 NaH2PO4, 1 MgCl2, 0.1 EDTA, in mM, pH 7.4). The oocytes were defolliculated by incubation in 25 mL OR2 containing 0.2% collagenase 1A (SIGMA) two times for about 60 minutes on a platform shaker and stored in Leibovitz's L-15 medium. Oocytes were injected the following day in 0.5× Leibovitz's L-15 medium containing […] gentamycin, 10 units/ml penicillin, and […] streptomycin.
Capped cRNAs from the linearized vectors containing human α1, β2 and γ2 subunits of the GABAA receptor genes were mixed in ratio of […]. Oocytes were injected with 25-50 nL of mixed RNA with an appx molar ratio for α1, β2, and γ2 as 1:1:10. Oocyte recordings were done 2-10 days after injection. The same methods apply to subtypes derived from α2β3γ2, α3β3γ2, and α5β3γ2, except for 1:1:1 ratio was used for α, β, and γ subunits.
All measurements were done in a medium containing ND-96 (96 NaCl, 2 KCl, 1.8 CaCl2.2H2O, 1 MgCl2.6H2O, 5 HEPES, in mM, pH 7.5). Two-electrode voltage-clamp recording was carried out using OpusXpress amplifier (Axon Instruments, Foster City, Calif.), which allows simultaneous recording from 8 oocytes. Oocytes were impaled with two electrodes of 1-2 MΩ tip resistance when filled with 3M KCl. Recordings were begun when membrane potential became stable at potentials negative to −50-−60 mV. Membrane potential was held at −60 mV. […] The concentration of GABA corresponded to the EC10 value calculated for each oocyte. The modulator pulses started 30 s before the GABA pulse so as to allow preincubation with the modulator. A set of 3 pulses with just GABA without modulator was given prior to the modulator-containing pulses to define the baseline GABA response. Two oocytes per each experiment were dedicated to observe the effect of diazepam on GABA response to ensure the presence of γ2 subunit in the GABAA pentameric complex, which imparts diazepam sensitivity to the complex.
Current amplitude (i) was measured from baseline to peak using Clampfit (Axon Inst., Foster City, Calif.). Potentiation was calculated as percent change from the baseline GABA current flux 100×(imod/icontrol)−1) where imod=current mediated by modulator+GABA and icontrol=current mediated by GABA alone. […] Similarly, a value of −50% potentiation means the presence of modulator caused a 50% decrease in the control current. Various other data shown here were fitted and plotted using GraphPad Prism (GraphPad Software, Inc. San Diego, Calif.). The percentage potentiation was converted to relative potentiation by dividing it with percentage potentiation value obtained from the same assay with diazepam as a control.
On the technique in general: In two-electrode clamp one electrode senses voltage and the other passes current.

T1 sequence (P47869 29-451): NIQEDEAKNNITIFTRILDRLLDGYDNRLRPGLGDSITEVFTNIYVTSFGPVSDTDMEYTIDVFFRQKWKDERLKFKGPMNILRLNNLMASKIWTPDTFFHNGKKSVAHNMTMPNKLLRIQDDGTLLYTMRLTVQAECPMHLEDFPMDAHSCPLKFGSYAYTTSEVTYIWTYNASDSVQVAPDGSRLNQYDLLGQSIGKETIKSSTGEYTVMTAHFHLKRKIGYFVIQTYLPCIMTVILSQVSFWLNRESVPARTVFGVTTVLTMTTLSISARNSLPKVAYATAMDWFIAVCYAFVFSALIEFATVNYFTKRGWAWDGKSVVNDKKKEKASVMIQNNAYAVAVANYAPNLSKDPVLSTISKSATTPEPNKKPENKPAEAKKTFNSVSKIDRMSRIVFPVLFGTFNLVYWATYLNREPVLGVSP
T1 sequence (P28472 26-473 partner): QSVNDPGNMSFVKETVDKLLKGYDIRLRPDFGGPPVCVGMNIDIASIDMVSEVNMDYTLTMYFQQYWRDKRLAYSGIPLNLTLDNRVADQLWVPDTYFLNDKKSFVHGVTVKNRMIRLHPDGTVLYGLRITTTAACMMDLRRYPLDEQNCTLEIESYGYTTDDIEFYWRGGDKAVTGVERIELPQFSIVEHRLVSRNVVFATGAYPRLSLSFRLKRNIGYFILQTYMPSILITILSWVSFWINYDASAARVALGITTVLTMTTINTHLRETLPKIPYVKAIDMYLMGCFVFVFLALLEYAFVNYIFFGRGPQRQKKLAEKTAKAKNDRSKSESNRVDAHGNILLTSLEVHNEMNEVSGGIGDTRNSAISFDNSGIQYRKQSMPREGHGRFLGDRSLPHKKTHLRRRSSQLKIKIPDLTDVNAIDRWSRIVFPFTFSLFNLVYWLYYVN
T1 sequence (P18507 40-475): as the sequence (P18507 40-475) above

What is called pKi is the Ki on a negative log10 scale, so that one unit is a factor of ten. High values mean a small Ki, low ones a large Ki. In assay [1], `COc1ccc(C)cc1-c1c(F)ccc2c(N)c3c(nc12)CN(C1CC1)C3=O` [9-amino-2-cyclopropyl-6-fluoro-5-(2-methoxy-5-methylphenyl)-2,3-dihydro-1H-pyrrolo[3,4-b]quinolin-1-one] showed a pKi of 8.12. In assay [2], the “Relative Potentiation for GABAA1” value worked out at 0.23.
Taken in the same sequence, the figures for `CCN1Cc2nc3c(-c4cc(C)ccc4OC)cccc3c(N)c2C1=O` [9-amino-2-ethyl-5-(2-methoxy-5-methylphenyl)-2,3-dihydro-1H-pyrrolo[3,4-b]quinolin-1-one] were 7.59 and 0.2.
`CCCN1Cc2nc3c(-c4ccc(OC)c(OC)c4OC)cccc3c(N)c2C1=O` [9-amino-2-propyl-5-(2,3,4-trimethoxyphenyl)-2,3-dihydro-1H-pyrrolo[3,4-b]quinolin-1-one] had a pKi in assay [1] of 7.30. Besides, the “Relative Potentiation for GABAA1” value in assay [2] stood at 0.55.
Regarding `CCCN1Cc2nc3c(-c4ccccc4C(F)(F)F)cccc3c(N)c2C1=O` [9-amino-2-propyl-5-(2-(trifluoromethyl)phenyl)-2,3-dihydro-1H-pyrrolo[3,4-b]quinolin-1-one], the pKi in assay [1] is 7.78. In assay [2], the “Relative Potentiation for GABAA1” value amounted to 0.48.
For `CCCN1Cc2nc3c(-c4ccccc4C)cccc3c(N)c2C1=O` [9-amino-2-propyl-5-(2-methylphenyl)-2,3-dihydro-1H-pyrrolo[3,4-b]quinolin-1-one], the negative-log Ki (pKi) in assay [1] was 8.26. The “Relative Potentiation for GABAA1” value in assay [2] came to 0.35.
In turn, `CCCN1Cc2nc3c(-c4cc(OC)c(OC)c(OC)c4)cccc3c(N)c2C1=O` [9-amino-2-propyl-5-(3,4,5-trimethoxyphenyl)-2,3-dihydro-1H-pyrrolo[3,4-b]quinolin-1-one] showed a pKi in assay [1] of 7.05. The “Relative Potentiation for GABAA1” value in assay [2] is 0.96.
In the same order, the values of `CCCN1Cc2nc3c(-c4ccc(C)cc4)cccc3c(N)c2C1=O` [9-amino-2-propyl-5-(4-methylphenyl)-2,3-dihydro-1H-pyrrolo[3,4-b]quinolin-1-one] are 7.09 and 0.37.
The compound `CCCN1Cc2nc3c(-c4ccncc4)cccc3c(N)c2C1=O` [9-amino-2-propyl-5-(pyridin-4-yl)-2,3-dihydro-1H-pyrrolo[3,4-b]quinolin-1-one] showed a pKi in assay [1] of 7.61. The “Relative Potentiation for GABAA1” value in assay [2] is 0.43.
In the case of `CCCN1Cc2nc3c(-c4ccc5ncccc5c4)cccc3c(N)c2C1=O` [9-amino-2-propyl-5-(quinolin-6-yl)-2,3-dihydro-1H-pyrrolo[3,4-b]quinolin-1-one], the pKi in assay [1] was 7.71. Further, the “Relative Potentiation for GABAA1” value in assay [2] is listed as 0.29.
Taken in the same sequence, the figures for `CCCN1Cc2nc3c(-c4ccsc4)cccc3c(N)c2C1=O` [9-amino-2-propyl-5-(thiophen-3-yl)-2,3-dihydro-1H-pyrrolo[3,4-b]quinolin-1-one] were 7.51 and 0.19.
As for `CCCN1Cc2nc3c(-c4ccc5[nH]ccc5c4)cccc3c(N)c2C1=O` [9-amino-5-(1H-indol-5-yl)-2-propyl-2,3-dihydro-1H-pyrrolo[3,4-b]quinolin-1-one], the pKi in assay [1] was 7.57. The “Relative Potentiation for GABAA1” value in assay [2] is 0.55.
In assay [1], `CCCN1Cc2nc3c(-c4cccc(OC)c4OC)cccc3c(N)c2C1=O` [9-amino-5-(2,3-dimethoxyphenyl)-2-propyl-2,3-dihydro-1H-pyrrolo[3,4-b]quinolin-1-one] gave a pKi of 7.61. Besides, the “Relative Potentiation for GABAA1” value in assay [2] is reported as 0.3.
`CCCN1Cc2nc3c(-c4ccc(F)cc4F)cccc3c(N)c2C1=O` [9-amino-5-(2,4-difluorophenyl)-2-propyl-2,3-dihydro-1H-pyrrolo[3,4-b]quinolin-1-one]: the pKi in assay [1] is 7.83. For the same compound, the “Relative Potentiation for GABAA1” value in assay [2] worked out at 0.39.
In the same order, the values of `COc1ccc(CN2Cc3nc4c(-c5ccc(OC)cc5OC)cccc4c(N)c3C2=O)cc1` [9-amino-5-(2,4-dimethoxyphenyl)-2-(4-methoxybenzyl)-2,3-dihydro-1H-pyrrolo[3,4-b]quinolin-1-one] are 7.49 and 0.25.
